Molecular target: human P2X7 (Homo sapiens (Human), UniProt Q99572)
Test: Human P2X7 functional assay (Ca2+ influx, Fluo-4, FDSS)
Assay type: cell-based
Conditions: antagonistic activity with respect to the human P2X7 receptor; BzATP final concentration 80 microM
Procedure: The ability of the 5,6,7,8-tetrahydroquinoline and 6,7-dihydro-5H-cyclopenta[b]pyridine derivatives of the formula (I) to inhibit the P2X7 channel was measured by Ca^2+ influx assay and electrophysiology assay described below.
Human P2X7 Functional Assay
The functional activity of compounds was determined by measuring changes in intracellular calcium concentration using a Ca^2+-sensitive fluorescent dye, Fluo-4 (Molecular Probes). The changes in fluorescent signal were monitored by the cell imaging technology by Hamamatsu Photonics's Functional Drug Screening System (FDSS). Increases in intracellular Ca^2+ concentration were readily detected upon activation with BzATP.
HEK293 cells stably expressing human P2X7 (GenBank accession number BC011913) carrying a C-terminal FLAG tag were grown in T225 flasks, in a 5% CO2 humidified incubator to about 80% confluence. Media composition consisted of Dulbecco's Modified Eagle Medium (high glucose), 10% fetal bovine serum ([…]), 100 units/[…] Penicillin, 100 microg/mL Streptomycin and 250 microg/mL Geneticine.
1. Plate-out HEK293-human P2X7 cells (40 microL medium containing 10,000 cells per well) into poly-D-lysine coated 384-well plates (Corning) at 24 h prior to assay.
2. Incubate at 37° C. in 5% CO2.
3. Incubate the plate at 37° C. in 5% CO2 for 1 h.
5. Test compounds were prepared at 100× the test concentration in DMSO by serial dilution with Biomek-FX liquid handling instrument. 33× diluted compound solutions in assay buffer were prepared in intermediate compound plate with Biomek-NX liquid handling instrument. A further 3× dilution occurred in below steps 6 and 7.
6. Add 20 microL of 33× diluted compound solutions into each well and leave the plate for 10 min under the dark at room temperature.
7. Measure activity by FDSS as follows: • Set the assay plate on the stacker of FDSS. • Start the detection of fluorescence intensity at 540 nm by 480 nm exicitation. • After 30 seconds, add 20 microL of assay buffer containing 240 microM BzATP (final concentration 80 microM).
IC50 values for compounds of the present invention were determined from 7-point dose-response studies. Curves were generated using the average of duplicate wells for each data point. Finally, the IC50 values are calculated with the best-fit dose curve determined by XLfit (ID Business Solutions Ltd.).

human P2X7, sequence (Q99572 whole entry): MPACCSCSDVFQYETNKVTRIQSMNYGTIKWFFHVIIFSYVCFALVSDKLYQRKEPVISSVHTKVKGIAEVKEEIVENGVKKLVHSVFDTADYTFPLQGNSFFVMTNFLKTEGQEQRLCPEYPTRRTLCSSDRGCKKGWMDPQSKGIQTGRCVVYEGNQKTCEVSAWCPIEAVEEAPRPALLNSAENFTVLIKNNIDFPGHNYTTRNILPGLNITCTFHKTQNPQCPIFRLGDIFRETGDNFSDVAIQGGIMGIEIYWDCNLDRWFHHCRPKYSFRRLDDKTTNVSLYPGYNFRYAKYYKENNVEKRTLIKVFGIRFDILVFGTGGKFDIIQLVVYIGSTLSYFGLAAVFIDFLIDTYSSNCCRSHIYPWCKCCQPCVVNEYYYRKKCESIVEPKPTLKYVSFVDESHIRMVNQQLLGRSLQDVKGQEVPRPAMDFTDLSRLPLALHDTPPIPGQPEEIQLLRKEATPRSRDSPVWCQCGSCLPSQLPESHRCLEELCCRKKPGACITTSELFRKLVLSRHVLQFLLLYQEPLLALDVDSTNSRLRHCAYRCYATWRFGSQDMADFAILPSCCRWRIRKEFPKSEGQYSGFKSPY

C[C@@H](NC(=O)[C@@]1(F)CC[C@@H](O)c2ncccc21)c1ccc(Cl)cc1Cl [Example 155, (5R,8R)-N-((R)-1-(2,4-dichlorophenyl)ethyl)-5-fluoro-8-hydroxy-5,6,7,8-tetrahydroquinoline-5-carboxamide]
IC50: 50 to 100 nM

O=C(NCc1c(Cl)cc(C(F)(F)F)cc1Cl)[C@@]1(F)CC[C@@H](O)c2ncccc21 [Example 147, (5R,8R)-N-(2,6-dichloro-4-(trifluoromethyl)benzyl)-5-fluoro-8-hydroxy-5,6,7,8-tetrahydroquinoline-5-carboxamide]
IC50: < 50 nM

O=C(NCCOc1cccc(C(F)(F)F)c1)[C@]1(F)CC[C@H](O)c2ncccc21 [Example 219]
IC50: 301 to 1000 nM

O=C(NCc1c(Cl)cc(C(F)(F)F)cc1Cl)[C@]1(F)CC[C@@H](O)c2ncccc21 [Example 113, (5S,8R)-N-(2,6-dichloro-4-(trifluoromethyl)benzyl)-5-fluoro-8-hydroxy-5,6,7,8-tetrahydroquinoline-5-carboxamide]
IC50: < 50 nM

O=C1CO[C@@]2(CC[C@](F)(C(=O)NCc3ccc(Cl)cc3Cl)c3cccnc32)CN1 [Example 293, (2S,5′R)-N-(2,4-dichlorobenzyl)-5′-fluoro-5-oxo-6′,7′-dihydro-5′H-spiro [morpholine-2,8′-quinoline]-5′-carboxamide]
IC50: 1000 to 3000 nM

O=C(NCc1cc(F)c(F)cc1Cl)[C@]1(F)CC[C@@H](O)c2ncccc21 [Example 123, (5S,8R)-N-(2-chloro-4,5-difluorobenzyl)-5-fluoro-8-hydroxy-5,6,7,8,- tetrahydroqunioline-5-carboxamide]
IC50: 101 to 300 nM

O=C(NCc1c(F)cc(Cl)cc1Cl)[C@@]1(F)CC[C@@H](O)c2ncccc21 [Example 151, (5R,8R)-N-(2,4-dichloro-6-fluorobenzyl)-5-fluoro-8-hydroxy-5,6,7,8-tetrahydroquinoline-5-carboxamide]
IC50: < 50 nM

Cc1cc(Cl)cc(Cl)c1CNC(=O)C1CC[C@H](O)c2ncccc21 (stereo partly drawn) [Example 64, (5R,8S)-N-(2,4-dichloro-6-methylbenzyl)-8-hydrdroxy-5,6,7,8-tetra-hydroxyquinoline-5-carboxamide]
IC50: < 50 nM

O=C1CC[C@@](F)(C(=O)NCc2ncc(Cl)cc2Cl)c2cccnc21 [Example 255, (S)-N-((3,5-dichloro-pyridin-2-yl)methyl)-5-fluoro-8-oxo-5,6,7,8-tetrahydroquinoline-5-carboxamide]
IC50: 101 to 300 nM

O=C(NCc1ccc(Cl)cc1)[C@]1(F)CC[C@H](O)c2ncccc21 [Example 210, (5S,8S)-N-(4-chlorobenzyl)-5-fluoro-8-hydroxy-5,6,7,8-tetrahydroquinoline-5-carboxamide]
IC50: 101 to 300 nM

O=C(NCc1ccccc1CN1CCOCC1)[C@]1(F)CC[C@H](O)c2ncccc21 [Example 214, (5S,8S)-5-fluoro-8-hydroxy-N-(2-(morpholinomethyl)benzyl)-5,6,7,8-tetrahydroquinoline-5-carboxamide]
IC50: 101 to 300 nM

O=C(O)CC1CCC(C(=O)NCc2cccc(C(F)(F)F)c2Cl)c2cccnc21 (stereo not drawn) [Example 31, 2-(5-((2-chloro-3-(trifluoro-methyl)benzyl)carbamoyl)-5,6,7,8-tetrahydroquinolin-8-yl)acetic acid]
IC50: 50 to 100 nM

O=C(NCc1ccc(F)cc1F)[C@@]1(F)CC[C@@H](O)c2ncccc21 [Example 140, (5R,8R)-N-(2,4-difluorobenzyl)-5-fluoro-8-hydroxy-5,6,7,8-tetrahydroquinoline-5-carboxamide]
IC50: 301 to 1000 nM

O=C(NCc1cc(Cl)cc(Cl)c1)[C@]1(F)CC[C@H](O)c2ncccc21 [Example 212, (5S,8S)-N-(3,5-dichlorobenzyl)-5-fluoro-8-hydroxy-5,6,7,8-tetrahydroquinoline-5-carboxamide]
IC50: 101 to 300 nM

O=C(NCc1ccc(Cl)cc1F)[C@@]1(F)CC[C@@H](O)c2ncccc21 [Example 145, (5R,8R)-N-(4-chloro-2-fluorobenzyl)-5-fluoro-8-hydroxy-5,6,7,8-tetrahydroquinoline-5-carboxamide]
IC50: 101 to 300 nM

O=C(N[C@H]1C[C@@H]1c1ccccc1)[C@]1(F)CC[C@H](O)c2ncccc21 [Example 215, (5S,8S)-5-fluoro-8-hydroxy-N-((1S,2R)-2-phenylcyclopropyl)-5,6,7,8-tetrahydroquinoline-5-carboxamide]
IC50: 101 to 300 nM

O=C(NCc1cc(F)c(F)c(F)c1)[C@]1(F)CC[C@H](O)c2ncccc21 [Example 200, (5S,8S)-5-fluoro-8-hydroxy-N-(3,4,5-trifluorobenzyl)-5,6,7,8-tetrahydroquinoline-5-carboxamide]
IC50: 50 to 100 nM

Cc1cc(Cl)cc(Cl)c1CNC(=O)C1CCC(CC(=O)O)c2ncccc21 (stereo not drawn) [Example 30, 2-(5-((2,4-dichloro-6-methyl-benzyl)carbamoyl)-5,6,7,8-tetrahydroquinolin-8-yl) acetic acid]
IC50: < 50 nM

Cc1ccc(Cl)c(CNC(=O)[C@]2(F)CC[C@H](O)c3ncccc32)c1F [Example 216, (5S,8S)-N-(6-chloro-2-fluoro-3-methylbenzyl)-5-fluoro-8-hydroxy-5,6,7,8-tetrahydroquinoline-5-carboxamide]
IC50: 101 to 300 nM

O=C(NCc1c(Cl)cc(Cl)cc1C(F)F)[C@@]1(F)CC[C@H](O)c2ncccc21 [Example 114]
IC50: 101 to 300 nM

COc1cccc(CNC(=O)[C@]2(F)CC[C@H](O)c3ncccc32)c1Cl [Example 224, (5S,8S)-N-(2-chloro-3-methoxybenzyl)-5-fluoro-8-hydroxy-5,6,7,8-tetrahydroquinoline-5-carboxamide]
IC50: 301 to 1000 nM

Cc1cc(Cl)cc(Cl)c1CNC(=O)[C@H]1CC[C@H](O)c2ncccc21 [Example 63, (5S,8S)-N-(2,4-dichloro-6-methylbenzyl)-8-hydroxy-5,6,7,8-tetrahydro-quinoline-5-carboxamide]
IC50: 101 to 300 nM

O=C(N[C@H]1CCc2ccccc21)[C@]1(F)CC[C@H](O)c2ncccc21 [Example 226, (5S,8S)-N-((S)-2,3-dihydro-1H-inden-1-yl)-5-fluoro-8-hydroxy-5,6,7,8-tetrahydroquinoline-5-carboxamide]
IC50: 1000 to 3000 nM

O=C(NCc1ccc(F)c(F)c1F)[C@H]1CC[C@H](O)c2ncccc21 [Example 71, (5S,8S)-8-hydroxy-N-(2,3,4-trifluorobenzyl)-5,6,7,8-tetrahydroquinoline-5-carboxamide]
IC50: 301 to 1000 nM

O=C(NCc1c(F)cc(Cl)cc1Cl)[C@H]1CC[C@@H](O)c2ncccc21 [Example 92, (5S,8R)-N-(2,4-dichloro-6-fluorobneyzl)-8-hy-droxy-5,6,7,8-tetrahydro-quinoline-5-carboxamide]
IC50: 101 to 300 nM

C[C@@]1(O)CC[C@@](F)(C(=O)NCC2(N3CCOCC3)CCCCC2)c2cccnc21 [Example 275, (5S,8R)-5-fluoro-8-hydroxy-8-methyl-N-((1-morpholinocyclohexyl)methyl)-5,6,7,8-tetrahydroquinoline-5-carboxamide]
IC50: 1000 to 3000 nM

O=C(NCc1c(Cl)ccc(Cl)c1Cl)[C@@]1(F)CC[C@@H](O)c2ncccc21 [Example 164, (5R,8R)-5-fluoro-8-hydroxy-N-(2,3,6-trichlorobenzyl)-5,6,7,8-tetrahydroquinoline-5-carboxamide]
IC50: 101 to 300 nM

O=C(NCc1cccc(C(F)(F)F)c1Cl)[C@@]1(F)CC[C@H](O)c2ncccc21 [Example 101, (5R,8S)-N-(2-chloro-3-(trifluoromethyl)benzyl)-5-fluoro-8-hydroxy-5,6,7,8-tetrahydroquinoline-5-carboxamide]
IC50: 101 to 300 nM

O=C(NCc1ccc(F)c(F)c1F)[C@H]1CC[C@@H](O)c2ncccc21 [Example 94, (5S,8R)-8-hydroxy-N-(2,3,4-trifluorobenzyl)-5,6,7,8-tetrahydroquinoline-5-carboxamide]
IC50: 1000 to 3000 nM

O=C(NCc1ccc(F)cc1Cl)[C@H]1CC[C@@H](O)c2ncccc21 [Example 90, (5S,8R)-N-(2-chloro-4-fluorobenzyl)-8-hydroxy-5,6,7,8-tetrahydroquinoline-5-carboxamide]
IC50: 101 to 300 nM

O=C(NCC(c1ccccc1)N1CCOCC1)[C@]1(F)CC[C@H](O)c2ncccc21 (mixture of isomers) [Example 235, (5S,8S)-5-fluoro-8-hydroxy-N-((rac)-2-morpholino-2-phenylethyl)-5,6,7,8-tetrahydroquinoline-5-carboxamide]
IC50: 1000 to 3000 nM

O=C(NCc1ccc(F)cc1F)[C@]1(F)CC[C@@H](O)c2ncccc21 [Example 109, (5S,8R)-N-(2,4-difluoro-benzyl)-5-fluoro-8-hydroxy-5,6,7,8-tetrahydroquinoline-5-carboxamide]
IC50: 301 to 1000 nM

O=C(NCc1ccc(Cl)cc1Cl)[C@@]1(F)CC[C@H](O)c2ncccc21 [Example 105, (5R,8S)-N-(2,4-dichlorobenzyl)-5-fluoro-8-hydroxy-5,6,7,8-tetrahydroquinoline-5-carboxamide]
IC50: 301 to 1000 nM
